Measurements as given in PubChem BioAssay (NCI).
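How tested: cells in 96-well plates exposed to compound for 48 hours at five concentrations. GI50 is the concentration that inhibits growth by half. TGI denotes the concentration required for complete inhibition of growth.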

Key:
Experiment in all cases: NCI tumour cell line growth inhibition, 48 h
HCT-116 colon = tested on: HCT-116 colon
SF-295 CNS = tested on: SF-295 CNS
SW-620 colon = tested on: SW-620 colon
MCF7 breast = tested on: MCF7 breast
SF-539 CNS = tested on: SF-539 CNS
ACHN renal = tested on: ACHN renal
U251 CNS = tested on: U251 CNS
LOX IMVI melanoma = tested on: LOX IMVI melanoma
NCI-H23 lung = tested on: NCI-H23 lung
HS 578T breast = tested on: HS 578T breast
OVCAR-3 ovarian = tested on: OVCAR-3 ovarian
SF-268 CNS = tested on: SF-268 CNS
NCI-H460 lung = tested on: NCI-H460 lung
MOLT-4 leukemia = tested on: MOLT-4 leukemia
K-562 leukemia = tested on: K-562 leukemia
SR leukemia = tested on: SR leukemia
MDA-MB-231 breast = tested on: MDA-MB-231 breast
RXF 393 renal = tested on: RXF 393 renal
SNB-75 CNS = tested on: SNB-75 CNS
CAKI-1 renal = tested on: CAKI-1 renal
HOP-62 NSCLC = tested on: HOP-62 NSCLC
SN12C renal = tested on: SN12C renal
SK-MEL-28 melanoma = tested on: SK-MEL-28 melanoma
HOP-92 NSCLC = tested on: HOP-92 NSCLC
DU-145 prostate = tested on: DU-145 prostate
HCC-2998 colon = tested on: HCC-2998 colon
A498 renal = tested on: A498 renal
SK-MEL-2 melanoma = tested on: SK-MEL-2 melanoma
PC-3 prostate = tested on: PC-3 prostate
NCI-H226 lung = tested on: NCI-H226 lung
MDA-MB-435 = tested on: MDA-MB-435
T-47D breast = tested on: T-47D breast
CCRF-CEM leukemia = tested on: CCRF-CEM leukemia
786-0 renal = tested on: 786-0 renal
OVCAR-8 ovarian = tested on: OVCAR-8 ovarian
KM12 colon = tested on: KM12 colon
HT29 colon = tested on: HT29 colon
IGROV1 ovarian = tested on: IGROV1 ovarian
EKVX NSCLC = tested on: EKVX NSCLC
HL-60(TB) leukemia = tested on: HL-60(TB) leukemia
BT-549 breast = tested on: BT-549 breast
OVCAR-4 ovarian = tested on: OVCAR-4 ovarian
SNB-19 CNS = tested on: SNB-19 CNS
RPMI-8226 leukemia = tested on: RPMI-8226 leukemia
OVCAR-5 ovarian = tested on: OVCAR-5 ovarian
M14 melanoma = tested on: M14 melanoma
TK-10 renal = tested on: TK-10 renal
A549 NSCLC = tested on: A549 NSCLC
NCI-H522 lung = tested on: NCI-H522 lung
SK-MEL-5 melanoma = tested on: SK-MEL-5 melanoma
UO-31 renal = tested on: UO-31 renal
SK-OV-3 ovarian = tested on: SK-OV-3 ovarian
COLO 205 colon = tested on: COLO 205 colon
NCI/ADR-RES ovarian = tested on: NCI/ADR-RES ovarian
HCT-15 colon = tested on: HCT-15 colon
MALME-3M melanoma = tested on: MALME-3M melanoma
UACC-62 melanoma = tested on: UACC-62 melanoma
UACC-257 melanoma = tested on: UACC-257 melanoma

SMILES: Cc1cc(-c2cc(O)ccc2Cl)cc2nnc(Nc3ccc(OCCN4CCCC4)cc3)nc12
- GI50 (HCT-116 colon): 180 nM
- TGI (HCT-116 colon): 341 nM
- GI50 (SF-295 CNS): 1700 nM
- TGI (SF-295 CNS): 3320 nM
- GI50 (SW-620 colon): 205 nM
- TGI (SW-620 colon): 399 nM
- GI50 (MCF7 breast): 179 nM
- TGI (MCF7 breast): 356 nM
- GI50 (SF-539 CNS): 1040 nM
- TGI (SF-539 CNS): 2320 nM
- GI50 (ACHN renal): 1430 nM
- TGI (ACHN renal): 2830 nM
- GI50 (U251 CNS): 194 nM
- TGI (U251 CNS): 372 nM
- GI50 (LOX IMVI melanoma): 1570 nM
- TGI (LOX IMVI melanoma): 3250 nM
- GI50 (NCI-H23 lung): 812 nM
- TGI (NCI-H23 lung): 2480 nM
- GI50 (HS 578T breast): 1540 nM
- TGI (HS 578T breast): 3830 nM
- GI50 (OVCAR-3 ovarian): 1590 nM
- TGI (OVCAR-3 ovarian): 3120 nM
- GI50 (SF-268 CNS): 1990 nM
- TGI (SF-268 CNS): 3910 nM
- GI50 (NCI-H460 lung): 579 nM
- TGI (NCI-H460 lung): 1120 nM
- GI50 (MOLT-4 leukemia): 251 nM
- TGI (MOLT-4 leukemia): 634 nM
- GI50 (K-562 leukemia): 44.3 nM
- TGI (K-562 leukemia): 245 nM
- GI50 (SR leukemia): 239 nM
- TGI (SR leukemia): 595 nM
- GI50 (MDA-MB-231 breast): 299 nM
- TGI (MDA-MB-231 breast): 967 nM
- GI50 (RXF 393 renal): 1200 nM
- TGI (RXF 393 renal): 2610 nM
- GI50 (SNB-75 CNS): 824 nM
- TGI (SNB-75 CNS): 2220 nM
- GI50 (CAKI-1 renal): 1540 nM
- TGI (CAKI-1 renal): 2970 nM
- GI50 (HOP-62 NSCLC): 1880 nM
- TGI (HOP-62 NSCLC): 3790 nM
- GI50 (SN12C renal): 1470 nM
- TGI (SN12C renal): 3030 nM
- GI50 (SK-MEL-28 melanoma): 292 nM
- TGI (SK-MEL-28 melanoma): 843 nM
- GI50 (HOP-92 NSCLC): 1100 nM
- TGI (HOP-92 NSCLC): 2590 nM
- GI50 (DU-145 prostate): 206 nM
- TGI (DU-145 prostate): 419 nM
- GI50 (HCC-2998 colon): 1940 nM
- TGI (HCC-2998 colon): 3660 nM
- GI50 (A498 renal): 1410 nM
- TGI (A498 renal): 2920 nM
- GI50 (SK-MEL-2 melanoma): 1700 nM
- TGI (SK-MEL-2 melanoma): 3640 nM
- GI50 (PC-3 prostate): 424 nM
- TGI (PC-3 prostate): 1540 nM
- GI50 (NCI-H226 lung): 4710 nM
- TGI (NCI-H226 lung): 7120 nM
- GI50 (MDA-MB-435): 175 nM
- TGI (MDA-MB-435): 321 nM
- GI50 (T-47D breast): 1660 nM
- TGI (T-47D breast): 3950 nM
- GI50 (CCRF-CEM leukemia): 242 nM
- TGI (CCRF-CEM leukemia): 634 nM
- GI50 (786-0 renal): 186 nM
- TGI (786-0 renal): 343 nM
- GI50 (OVCAR-8 ovarian): 705 nM
- TGI (OVCAR-8 ovarian): 1560 nM
- GI50 (KM12 colon): 617 nM
- TGI (KM12 colon): 1320 nM
- GI50 (HT29 colon): 1930 nM
- TGI (HT29 colon): 3910 nM
- GI50 (IGROV1 ovarian): 1630 nM
- TGI (IGROV1 ovarian): 3570 nM
- GI50 (EKVX NSCLC): 1570 nM
- TGI (EKVX NSCLC): 3270 nM
- GI50 (HL-60(TB) leukemia): 305 nM
- TGI (HL-60(TB) leukemia): 627 nM
- GI50 (BT-549 breast): 1450 nM
- TGI (BT-549 breast): 3160 nM
- GI50 (OVCAR-4 ovarian): 615 nM
- TGI (OVCAR-4 ovarian): 1300 nM
- GI50 (SNB-19 CNS): 659 nM
- TGI (SNB-19 CNS): 1230 nM
- GI50 (RPMI-8226 leukemia): 207 nM
- TGI (RPMI-8226 leukemia): 442 nM
- GI50 (OVCAR-5 ovarian): 1650 nM
- TGI (OVCAR-5 ovarian): 3140 nM
- GI50 (M14 melanoma): 326 nM
- TGI (M14 melanoma): 1190 nM
- GI50 (TK-10 renal): 1390 nM
- TGI (TK-10 renal): 3000 nM
- GI50 (A549 NSCLC): 1360 nM
- TGI (A549 NSCLC): 3480 nM
- GI50 (NCI-H522 lung): 710 nM
- TGI (NCI-H522 lung): 2580 nM
- GI50 (SK-MEL-5 melanoma): 1750 nM
- TGI (SK-MEL-5 melanoma): 3370 nM
- GI50 (UO-31 renal): 1300 nM
- TGI (UO-31 renal): 2730 nM
- GI50 (SK-OV-3 ovarian): 1300 nM
- TGI (SK-OV-3 ovarian): 2800 nM
- GI50 (COLO 205 colon): 2080 nM
- TGI (COLO 205 colon): 4290 nM
- GI50 (NCI/ADR-RES ovarian): 682 nM
- TGI (NCI/ADR-RES ovarian): 1610 nM
- GI50 (HCT-15 colon): 183 nM
- TGI (HCT-15 colon): 360 nM
- GI50 (MALME-3M melanoma): 190 nM
- TGI (MALME-3M melanoma): 426 nM
- GI50 (UACC-62 melanoma): 1700 nM
- TGI (UACC-62 melanoma): 3330 nM
- GI50 (UACC-257 melanoma): 1960 nM
- TGI (UACC-257 melanoma): 3910 nM
